Inconclusive results and toxic doses are left out.
System: L1210 leukemia ip in BDF1 mice, survival T/C
Experiment: NCI In Vivo Anticancer Drug Screen. Data for tumor model L1210 Leukemia (intraperitoneal) in B6D2F1 (BDF1) mice
Details: endpoint: mean survival time, higher = longer survival
Summary of the method: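 Ratio derived from survival: compound-dosed mice over vehicle-dosed mice, all bearing a transplantable tumor.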

[1] = dose: 50.0 mg/kg/injection, schedule: Q01DX001 (ip), vehicle: saline
[2] = dose: 100.0 mg/kg/injection, schedule: Q01DX001 (ip), vehicle: saline
[3] = dose: 200.0 mg/kg/injection, schedule: Q01DX001 (ip), vehicle: saline
[4] = dose: 400.0 mg/kg/injection, schedule: Q01DX001 (ip), vehicle: saline

With `NC(=O)N/N=C1\CCCC(OC(=O)c2ccccc2)CC1` (stereo unspecified) the T/C (dose: 100.0 mg/kg/injection, schedule: Q01DX009 (ip), vehicle: Klucel (hydroxypropylcellulose) (HPC)) was 97 % of control, the T/C (dose: 100.0 mg/kg/injection, schedule: Q04DX003 (ip), vehicle: Klucel (hydroxypropylcellulose) (HPC)) was 97 % of control and the T/C (dose: 200.0 mg/kg/injection, schedule: Q01DX009 (ip), vehicle: Klucel (hydroxypropylcellulose) (HPC)) was 97 % of control. For the same compound, the T/C (dose: 200.0 mg/kg/injection, schedule: Q04DX003 (ip), vehicle: Klucel (hydroxypropylcellulose) (HPC)) was 102 % of control, the T/C (dose: 400.0 mg/kg/injection, schedule: Q01DX009 (ip), vehicle: Klucel (hydroxypropylcellulose) (HPC)) was 94 % of control and the T/C (dose: 400.0 mg/kg/injection, schedule: Q04DX003 (ip), vehicle: Klucel (hydroxypropylcellulose) (HPC)) was 96 % of control.

For `C=CCCC[P+](c1ccccc1)(c1ccccc1)c1ccccc1`, the T/C (dose: 3.13 mg/kg/injection, schedule: Q01DX009 (ip), vehicle: saline) was 95 % of control, the T/C (dose: 6.25 mg/kg/injection, schedule: Q01DX009 (ip), vehicle: saline) was 103 % of control and the T/C (dose: 12.5 mg/kg/injection, schedule: Q01DX009 (ip), vehicle: saline with Tween-80) was 108 % of control. For the same compound, the T/C (dose: 12.5 mg/kg/injection, schedule: Q01DX009 (ip), vehicle: saline) was 100 % of control, the T/C (dose: 25.0 mg/kg/injection, schedule: Q01DX009 (ip), vehicle: saline with Tween-80) was 108 % of control and the T/C (dose: 50.0 mg/kg/injection, schedule: Q01DX009 (ip), vehicle: saline) was 101 % of control.

With `Oc1cccc(-c2cc3c(O)ccc(O)c3[nH]2)c1` the T/C (dose: 100.0 mg/kg/injection, schedule: Q04DX002 (ip), vehicle: Klucel (hydroxypropylcellulose) (HPC)) was 86 % of control, the T/C (dose: 200.0 mg/kg/injection, schedule: Q04DX002 (ip), vehicle: Klucel (hydroxypropylcellulose) (HPC)) was 99 % of control and the T/C (dose: 400.0 mg/kg/injection, schedule: Q04DX002 (ip), vehicle: Klucel (hydroxypropylcellulose) (HPC)) was 91 % of control.

`CCSc1nc(/C=N/NS(=O)(=O)c2ccccc2)c(F)c(=O)[nH]1` was tested, and the T/C (dose: 100.0 mg/kg/injection, schedule: Q01DX001 (ip), vehicle: other) was 105 % of control, the T/C (dose: 200.0 mg/kg/injection, schedule: Q01DX001 (ip), vehicle: other) was 101 % of control and the T/C (dose: 400.0 mg/kg/injection, schedule: Q01DX001 (ip), vehicle: other) was 96 % of control.

For `CCCn1cnc2c(=S)nc[nH]c21`, the T/C (dose: 12.5 mg/kg/injection, schedule: Q01DX Z (ip), vehicle: carboxymethylcellulose (CMC)) was 108 % of control, the T/C (dose: 25.0 mg/kg/injection, schedule: Q01DX Z (ip), vehicle: carboxymethylcellulose (CMC)) was 102 % of control and the T/C (dose: 37.5 mg/kg/injection, schedule: Q04DX003 (ip), vehicle: Klucel (hydroxypropylcellulose) (HPC)) was 97 % of control. The T/C (dose: 50.0 mg/kg/injection, schedule: Q01DX Z (ip), vehicle: carboxymethylcellulose (CMC)) was 104 % of control, the T/C (dose: 75.0 mg/kg/injection, schedule: Q04DX003 (ip), vehicle: Klucel (hydroxypropylcellulose) (HPC)) was 103 % of control and the T/C (dose: 150.0 mg/kg/injection, schedule: Q04DX003 (ip), vehicle: Klucel (hydroxypropylcellulose) (HPC)) was 123 % of control. For the same compound, the T/C (dose: 300.0 mg/kg/injection, schedule: Q04DX003 (ip), vehicle: Klucel (hydroxypropylcellulose) (HPC)) was 151 % of control.

With `CCC(C)(C)c1ccc(OCCCCCCN2CCN(c3ccc(C)c(Cl)c3)CC2)cc1` the T/C (dose: 75.0 mg/kg/injection, schedule: Q01DX001 (ip), vehicle: saline) was 102 % of control and the T/C (dose: 150.0 mg/kg/injection, schedule: Q01DX001 (ip), vehicle: saline) was 110 % of control.

In the case of `c1ccc2c(c1)OCOc1ccccc1OCO2`, the T/C (dose: 100.0 mg/kg/injection, schedule: Q01DX001 (ip), vehicle: carboxymethylcellulose (CMC)) is reported as 94 % of control, the T/C (dose: 200.0 mg/kg/injection, schedule: Q01DX001 (ip), vehicle: carboxymethylcellulose (CMC)) is reported as 92 % of control and the T/C (dose: 400.0 mg/kg/injection, schedule: Q01DX001 (ip), vehicle: carboxymethylcellulose (CMC)) is reported as 92 % of control.

In the case of `CC1(C)OC2C(CO)OC(n3nnc4c(SCc5ccccc5)nc(N)nc43)C2O1` (stereo unspecified), the T/C (dose: 100.0 mg/kg/injection, schedule: Q01DX001 (ip), vehicle: Klucel (hydroxypropylcellulose) (HPC)) is reported as 98 % of control, the T/C (dose: 200.0 mg/kg/injection, schedule: Q01DX001 (ip), vehicle: Klucel (hydroxypropylcellulose) (HPC)) is reported as 92 % of control and the T/C (dose: 400.0 mg/kg/injection, schedule: Q01DX001 (ip), vehicle: Klucel (hydroxypropylcellulose) (HPC)) is reported as 101 % of control.

`Brc1cc(Br)c(N=Nc2c(Br)cc(Br)cc2Br)c(Br)c1` was tested, and the T/C [1] was 95 % of control, the T/C [2] was 95 % of control and the T/C [3] was 95 % of control. The T/C [4] was 101 % of control.

`CCOC1C=CC(O)C(CO)O1` (stereo unspecified) was tested, and the T/C [2] was 101 % of control, the T/C [3] was 98 % of control and the T/C [4] was 95 % of control.

For `CNC(=O)C(c1ccccc1)C(O)c1ccccc1` (stereo unspecified), the T/C [1] was 103 % of control, the T/C [2] was 101 % of control and the T/C [3] was 103 % of control.

In the case of `O=C(N/N=C\C=C\c1ccccc1)c1ccc(Cl)cc1`, the T/C (dose: 50.0 mg/kg/injection, schedule: Q01DX009 (ip), vehicle: saline with Tween-80) is reported as 93 % of control, the T/C (dose: 100.0 mg/kg/injection, schedule: Q01DX009 (ip), vehicle: saline with Tween-80) is reported as 89 % of control and the T/C (dose: 200.0 mg/kg/injection, schedule: Q01DX009 (ip), vehicle: saline with Tween-80) is reported as 86 % of control.

From PubChem BioAssay AID248 (DTP/NCI, 2004)
